Source: ChEMBL document CHEMBL3603836, “Hybrid pyrimidine alkynyls inhibit the clinically resistance related Bcr-Abl(T315I) mutant” (Bioorg Med Chem Lett, 2015)
Calls of active or inactive are those of the source. No cut-off for these calls is given here.

Key:
[1] = system: BaF3; experiment: Antitumor activity against mouse BA/F3 cells expressing Bcr-Abl T315I mutant allografted in mouse assessed as tumor growth inhibition at 10 mg/kg, qd for 16 days; type: functional, organism-based
[2] = system: K562; experiment: cells; conditions: Homo sapiens, K562, 72 h
Description: Antiproliferative activity against human K562 cells expressing wild type Bcr-Abl after 72 hrs by CCK-8 assay

[3] = system: BaF3; experiment: Induction of apoptosis in mouse BA/F3 cells expressing Bcr-Abl T315I mutant assessed as late apoptotic cells at 20 nM after 24 hrs using annexin-V/7-AAD staining by FACS analysis (reference value: 2.2%); type: functional
[4] = system: K562; experiment: Induction of apoptosis in human K562 cells expressing wild type Bcr-Abl assessed as late apoptotic cells at 4 nM after 24 hrs using annexin-V/7-AAD staining by FACS analysis (reference value: 2.1%); type: functional
[5] = system: BaF3; experiment: Induction of apoptosis in mouse BA/F3 cells expressing Bcr-Abl T315I mutant assessed as late apoptotic cells at 500 nM after 24 hrs using annexin-V/7-AAD staining by FACS analysis (reference value: 2.2%); type: functional
[6] = Antiproliferative activity against mouse BA/F3 cells expressing wild type Bcr-Abl after 72 hrs by CCK-8 assay; type: functional, cell-based; conditions: BaF3, 72 h
[7] = system: BaF3; experiment: Induction of apoptosis in mouse BA/F3 cells expressing Bcr-Abl T315I mutant assessed as early apoptotic cells at 20 nM after 24 hrs using annexin-V/7-AAD staining by FACS analysis (reference value: 4.6%); type: functional
[8] = Cell cycle arrest in mouse BA/F3 cells expressing Bcr-Abl T315I mutant assessed as accumulation at G0/G1 phase after 24 hrs using propidium iodide staining by flow cytometry; type: functional, cell-based; conditions: BaF3
[9] = system: BaF3; experiment: Antitumor activity against mouse BA/F3 cells expressing Bcr-Abl T315I mutant allografted in po dosed mouse assessed as tumor growth inhibition administered qd for 16 days; type: functional, organism-based
[10] = system: K562; experiment: Cell cycle arrest in human K562 cells expressing wild type Bcr-Abl assessed as accumulation at G0/G1 phase at 100 nM after 24 hrs using propidium iodide staining by flow cytometry (reference value: 64.03%); type: functional
[11] = system: BaF3; experiment: Induction of apoptosis in mouse BA/F3 cells expressing Bcr-Abl T315I mutant assessed as early apoptotic cells at 100 nM after 24 hrs using annexin-V/7-AAD staining by FACS analysis (reference value: 4.6%); type: functional
[12] = system: K562; experiment: Induction of apoptosis in human K562 cells expressing wild type Bcr-Abl assessed as early apoptotic cells at 4 nM after 24 hrs using annexin-V/7-AAD staining by FACS analysis (reference value: 7.3%); type: functional
[13] = Cell cycle arrest in mouse BA/F3 cells expressing Bcr-Abl T315I mutant assessed as accumulation at G0/G1 phase at 4 nM after 24 hrs using propidium iodide staining by flow cytometry (reference value: 51.92%); type: functional, cell-based; conditions: BaF3
[14] = system: BaF3; experiment: Induction of apoptosis in mouse BA/F3 cells expressing Bcr-Abl T315I mutant assessed as late apoptotic cells at 4 nM after 24 hrs using annexin-V/7-AAD staining by FACS analysis (reference value: 2.2%); type: functional
[15] = system: K562; experiment: Cell cycle arrest in human K562 cells expressing wild type Bcr-Abl assessed as accumulation at G0/G1 phase after 24 hrs using propidium iodide staining by flow cytometry; type: functional, cell-based
[16] = system: BaF3; experiment: Induction of apoptosis in mouse BA/F3 cells expressing Bcr-Abl T315I mutant assessed as late apoptotic cells at 100 nM after 24 hrs using annexin-V/7-AAD staining by FACS analysis (reference value: 2.2%); type: functional
[17] = system: K562; experiment: Induction of apoptosis in human K562 cells expressing wild type Bcr-Abl assessed as late apoptotic cells at 20 nM after 24 hrs using annexin-V/7-AAD staining by FACS analysis (reference value: 2.1%); type: functional
[18] = system: Rattus norvegicus; experiment: AUC (0 to infinity) in Sprague-Dawley rat at 25 mg/kg, po; type: ADME, organism-based; parameters: dose 25 mg/kg, time infinity, route oral; conditions: in vivo
[19] = system: K562; experiment: Induction of apoptosis in human K562 cells expressing wild type Bcr-Abl assessed as late apoptotic cells after 24 hrs using annexin-V/7-AAD staining by FACS analysis; type: functional, cell-based
[20] = system: K562; experiment: Induction of apoptosis in human K562 cells expressing wild type Bcr-Abl assessed as early apoptotic cells at 0.8 nM after 24 hrs using annexin-V/7-AAD staining by FACS analysis (reference value: 7.3%); type: functional
[21] = system: Tyrosine-protein kinase ABL1 (Mus musculus), P00520 [T315I]; experiment: Inhibition of Bcr-Abl T315I mutant phosphorylation in mouse BA/F3 cells after 4 hrs by Western blot analysis; type: cell-based; conditions: BaF3
[22] = system: Mus musculus; experiment: Toxicity in human K562 cells expressing wild type Bcr-Abl xenografted mouse assessed as change in body weight at 3.3 to 10 mg/kg, po qd for 16 days relative to control; type: organism-based; conditions: in vivo, 384 h
[23] = Cell cycle arrest in mouse BA/F3 cells expressing Bcr-Abl T315I mutant assessed as accumulation at G0/G1 phase at 500 nM after 24 hrs using propidium iodide staining by flow cytometry (reference value: 51.92%); type: functional, cell-based; conditions: BaF3
[24] = system: K562; experiment: Induction of apoptosis in human K562 cells expressing wild type Bcr-Abl assessed as late apoptotic cells at 100 nM after 24 hrs using annexin-V/7-AAD staining by FACS analysis (reference value: 2.1%); type: functional
[25] = Ratio of Cmax in Sprague-Dawley rat at 25 mg/kg, po to IC50 for Bcr-Abl T315I mutant (unknown origin); type: ADME, organism-based; conditions: in vivo
[26] = system: K562; experiment: Cell cycle arrest in human K562 cells expressing wild type Bcr-Abl assessed as accumulation at G0/G1 phase at 20 nM after 24 hrs using propidium iodide staining by flow cytometry (reference value: 64.03%); type: functional
[27] = system: BaF3; experiment: Induction of apoptosis in mouse BA/F3 cells expressing Bcr-Abl T315I mutant assessed as early apoptotic cells at 500 nM after 24 hrs using annexin-V/7-AAD staining by FACS analysis (reference value: 4.6%); type: functional
[28] = system: K562; experiment: Induction of apoptosis in human K562 cells expressing wild type Bcr-Abl assessed as early apoptotic cells at 20 nM after 24 hrs using annexin-V/7-AAD staining by FACS analysis (reference value: 7.3%); type: functional
[29] = system: Tyrosine-protein kinase ABL1 (Mus musculus), P00520 [T315I]; experiment: Inhibition of Bcr-Abl T315I mutant in mouse BA/F3 cells assessed as reduction of CRKL phosphorylation at 4 to 500 nM after 4 hrs by Western blot analysis; type: cell-based; conditions: BaF3
[30] = system: K562; experiment: Induction of apoptosis in human K562 cells expressing wild type Bcr-Abl assessed as early apoptotic cells at 100 nM after 24 hrs using annexin-V/7-AAD staining by FACS analysis (reference value: 7.3%); type: functional
[31] = system: K562; experiment: Induction of apoptosis in human K562 cells expressing wild type Bcr-Abl assessed as late apoptotic cells at 0.8 nM after 24 hrs using annexin-V/7-AAD staining by FACS analysis (reference value: 2.1%); type: functional
[32] = system: K562; experiment: Cell cycle arrest in human K562 cells expressing wild type Bcr-Abl assessed as accumulation at G0/G1 phase at 0.8 nM after 24 hrs using propidium iodide staining by flow cytometry (reference value: 64.03%); type: functional

Tyrosine-protein kinase ABL1 (Mus musculus), P00520 [T315I], sequence (P00520 whole entry T315I): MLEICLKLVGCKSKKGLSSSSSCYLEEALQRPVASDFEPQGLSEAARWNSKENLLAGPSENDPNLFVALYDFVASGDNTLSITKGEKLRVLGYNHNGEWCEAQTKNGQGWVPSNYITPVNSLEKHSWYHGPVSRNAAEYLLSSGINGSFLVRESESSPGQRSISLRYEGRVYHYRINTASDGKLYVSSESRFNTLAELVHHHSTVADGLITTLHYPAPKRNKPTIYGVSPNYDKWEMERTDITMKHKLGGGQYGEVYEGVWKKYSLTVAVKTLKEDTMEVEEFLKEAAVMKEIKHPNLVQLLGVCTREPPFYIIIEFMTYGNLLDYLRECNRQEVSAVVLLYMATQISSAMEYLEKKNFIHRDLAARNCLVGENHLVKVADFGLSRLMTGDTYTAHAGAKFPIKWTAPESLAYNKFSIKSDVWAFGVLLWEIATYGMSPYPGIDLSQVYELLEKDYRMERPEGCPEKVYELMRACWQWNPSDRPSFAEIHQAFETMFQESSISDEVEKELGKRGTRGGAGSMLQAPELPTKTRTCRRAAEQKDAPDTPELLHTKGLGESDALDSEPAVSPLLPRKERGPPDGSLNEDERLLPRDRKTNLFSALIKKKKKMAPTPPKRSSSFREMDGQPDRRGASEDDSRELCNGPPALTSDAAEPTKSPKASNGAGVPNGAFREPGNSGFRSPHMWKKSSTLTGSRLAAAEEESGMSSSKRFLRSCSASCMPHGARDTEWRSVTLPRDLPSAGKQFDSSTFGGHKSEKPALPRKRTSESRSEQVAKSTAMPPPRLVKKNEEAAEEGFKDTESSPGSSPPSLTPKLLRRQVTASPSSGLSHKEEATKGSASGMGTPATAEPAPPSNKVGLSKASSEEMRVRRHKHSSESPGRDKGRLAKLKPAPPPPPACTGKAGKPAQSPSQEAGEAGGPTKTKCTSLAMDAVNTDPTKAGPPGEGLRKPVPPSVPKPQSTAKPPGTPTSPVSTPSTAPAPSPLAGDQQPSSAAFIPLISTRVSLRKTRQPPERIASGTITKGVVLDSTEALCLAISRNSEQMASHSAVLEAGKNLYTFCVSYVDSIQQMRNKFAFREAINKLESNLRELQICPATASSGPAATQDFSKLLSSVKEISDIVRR

Cc1cn(-c2cc(NC(=O)c3ccc(C)c(C#Cc4cnc(NC5CC5)nc4)c3)cc(C(F)(F)F)c2)cn1
Activity [1]: inactive
IC50 [2]: 2 nM
Activity [3]: 4.1%
Activity [4]: 2%
Activity [5]: 4.3%
IC50 [6]: 2 nM
Activity [7]: 6.6%
Activity [8]: Dose-dependent effect
growth inhibition (GI) [9]: Dose-dependent effect
Activity [10]: 91.44%
Activity [11]: 7.1%
Activity [12]: 6.7%
Activity [13]: 52.4%
Activity [14]: 3.3%
Activity [15]: Dose-dependent effect
Activity [16]: 4%
Activity [17]: 2.5%
AUC [18]: 251684 µg/L/h
Activity [19]: Dose-dependent effect
Activity [20]: 7.1%
inhibition [21]: Dose-dependent effect
Activity [22]: < 5%
Activity [23]: 70.2%
Activity [24]: 9%
Ratio [25]: 1333
Activity [26]: 87.03%
Activity [27]: 10.2%
Activity [28]: 14.2%
inhibition [29]: Active
Activity [30]: 73.6%
Activity [31]: 1.7%
Activity [32]: 67.61%
